Our source for the IC50 values is patent US11834460B2, “Imide-based modulators of proteolysis and associated methods of use” (YALE UNIVERSITY, priority 2018, dated 2023).

One may read the IC50 as the concentration that inhibits the measured activity by half.

The test deals with c-Myc. The experiment in a line: c-Myc ELISA assay protocol in 22RV-1 cells. The format is cell-based, human. As to conditions: 18 h, read-out: cMyc IC50. As for the experimental part: In each bioassay, cells were treated with varying amounts of compounds encompassed by the present disclosure, as shown in Table 1. The degradation of the following proteins were evaluated in this study: TANK-binding kinase 1 (TBK1), estrogen receptor α (ERα), bromodomain-containing protein 4 (BRD4), androgen receptor (AR), and c-Myc.
5. c-Myc ELISA Assay Protocol
22RV-1 cells were purchased from ATCC and cultured in RPMI+10% FBS media. Cells were harvested using trypsin (Gibco #25200-114), counted and seeded at 30,000 cells/well at a volume of 75 μL/well in RPMI +10% FBS media in 96-well plates. The cells were dosed with compounds diluted in 0.1% DMSO, incubated for 18 h then washed and lysed in 50 uL RIPA buffer (50 mM Tris pH8, 150 mM NaCl, 1% Tx-100, 0.1% SDS, 0.5% sodium deoxycholate) supplemented with protease and phosphatase inhibitors. The lysates were clarified at 4000 rpm at 4° C. for 10 minutes then aliquots were added into a 96-well ELISA plate of Novex Human c-myc ELISA kit from Life Technologies Catalog #KHO2041. 50 ul of c-Myc Detection antibody was added into every well, the plates incubated at room temperature for 3 hrs, then washed with ELISA wash buffer. 100 uL of the anti-rabbit IgG-HRP secondary antibody was added to each well and incubated at room temperature for 30 minutes. The plates were washed with ELISA wash buffer, 100 μL TMB added to each well, and then monitored every 5 minutes for a color change. 100 μL of stop solution is added and the plates read at 450 nm.
With `Cc1sc2c(c1C)C(c1ccc(Cl)cc1)=N[C@@H](CC(=O)N[C@@H](C)c1ccc(-c3ncc(OCCCNc4cccc5c4C(=O)N(C4CCC(=O)NC4=O)C5=O)cn3)cc1)c1nnc(C)n1-2` (stereo partly drawn) [Compound 40, 2-((S)-4-(4-chlorophenyl)-2,3,9-trimethyl-6H-thieno[3,2-f][1,2,4]triazolo[4,3-a][1,4]diazepin-6-yl)-N-((1S)-1-(4-(5-(3-(2-(2,6-dioxopiperidin-3-yl)-1,3-dioxoisoindolin-4-ylamino)propoxy)pyrimidin-2-yl)phenyl)ethyl)acetamide], the IC50 was under 50 nM.

`Cc1sc2c(c1C)C(c1ccc(Cl)cc1)=N[C@@H](CC(=O)N[C@@H](C)c1ccc(OCCCOCCNc3cccc4c3C(=O)N(C3CCC(=O)NC3=O)C4=O)cc1)c1nnc(C)n1-2` (stereo partly drawn) [Compound 41, 2-[9S)-7-(4-chlorophenyl)-4,5,13-trimethyl-3-thia-1,8,11,12-tetraazatricyclo [8.3.0.0^2,^6]trideca-2(6),4,7,10,12-pentaen-9-yl]-N-[(1S)-1-{4-[3-(2-{[2-(2,6-dioxopiperidin-3-yl)-1,3-dioxo-2,3-dihydro-1H-isoindol-4-yl]amino}ethoxy)propoxyphenyl}ethyl]acetamide]: the IC50 is under 50 nM.

Regarding `Cc1sc2c(c1C)C(c1ccc(Cl)cc1)=N[C@@H](CC(=O)N[C@@H](C)c1ccc(OCCOCCNc3cccc4c3CN(C3CCC(=O)NC3=O)C4=O)cc1)c1nnc(C)n1-2` (stereo partly shown) [Compound 42], the IC50 is under 50 nM. With `Cc1sc2c(c1C)C(c1ccc(Cl)cc1)=N[C@@H](CC(=O)NCCCCNc1cccc3c1C(=O)N(C1CCC(=O)NC1=O)C3=O)c1nnc(C)n1-2` (stereo partly drawn) [Compound 43, 2-[(9S)-7-(4-chlorophenyl)-4,5,13-trimethyl-3-thia-1,8,11,12-tetraazatricyclo [8.3.0.0^2,^6]trideca-2(6),4,7,10,12-pentaen-9-yl]-N-(4-{[2-(2,6-dioxopiperidin-3-yl)-1,3-dioxo-2,3-dihydro-1H-isoindol-4-yl]amino}butyl) acetamide] the figure was over 50 nM; with `Cc1nnc2n1C1=C(C(c3ccc(Cl)cc3)=N[C@H]2CC(=O)NCCCCCNc2cccc3c2C(=O)N(C2CCC(=O)NC2=O)C3=O)C(C)C(C)S1` (stereo partly drawn) [Compound 45, 2-[(9S)-7-(4-chlorophenyl)-4,5,13-trimethyl-3-thia-1,8,11,12-tetraazatricyclo [8.3.0.0^2,^6]trideca-2(6),4,7,10,12-pentaen-9-yl]-N-(5-{[2-(2,6-dioxopiperidin-3-yl)-1,3-dioxo-2,3-dihydro-1H-isoindol-4-yl]amino}pentyl) acetamide], under 50 nM; with `Cc1sc2c(c1C)C(c1ccc(Cl)cc1)=N[C@@H](CC(=O)NCCCNc1cccc3c1CN(C1CCC(=O)NC1=O)C3=O)c1nnc(C)n1-2` (stereo partly drawn) [Compound 46, 2-[(9S)-7-(4-chlorophenyl)-4,5,13-trimethyl-3-thia-1,8,11,12-tetraazatricyclo [8.3.0.0^2,^6]trideca-2(6),4,7,10,12-pentaen-9-yl]-N-(3-{[2-(2,6-dioxopiperidin-3-yl)-1-oxo-2,3-dihydro-1H-isoindol-4-yl]amino}propyl) acetamide], over 50 nM. With `Cc1sc2c(c1C)C(c1ccc(Cl)cc1)=N[C@@H](CC(=O)NCCCCNc1cccc3c1CN(C1CCC(=O)NC1=O)C3=O)c1nnc(C)n1-2` (stereo partly drawn) [Compound 47, 2-[(9S)-7-(4-chlorophenyl)-4,5,13-trimethyl-3-thia-1,8,11,12-tetraazatricyclo [8.3.0.0^2,^6]trideca-2(6),4,7,10,12-pentaen-9-yl]-N-(4-{[2-(2,6-dioxopiperidin-3-yl)-1-oxo-2,3-dihydro-1H-isoindol-4-yl]amino}butyl) acetamide] the figure was over 50 nM.
